Results reported in ChEMBL document CHEMBL1201862, “PubChem BioAssay data set” (2004).
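96-well plates; 48 h exposure; 5 concentrations. Endpoints by linear interpolation between flanking doses. Not reached: highest tested concentration assigned. GI50 marks 50% less growth.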 The source made the active and inactive calls. Rule as the data show it: active = GI50 up to about 1.1 µM and inactive = higher.

Columns and labels:
Test in all cases: NCI tumour cell line growth inhibition, 48 h
[1] = system: DU-145
[2] = system: NCI-H522
[3] = system: HL-60
[4] = system: 786-0
[5] = system: ACHN
[6] = system: NCI-H226
[7] = system: UACC-62
[8] = system: COLO 205
[9] = system: SK-OV-3
[10] = system: MDA-N
[11] = system: SNB-19
[12] = system: HOP-92
[13] = system: K562
[14] = system: OVCAR-4
[15] = system: M14
[16] = system: UO-31
[17] = system: UACC-257
[18] = system: MDA-MB-435
[19] = system: SR
[20] = system: T47D

Measured: GI50

CCOC(=O)c1nc2ccc(C(F)(F)F)cc2nc1NCc1ccc(F)cc1
inactive: [1] 46.5 µM | [2] 18.1 µM | [3] 29.6 µM | [4] 30.1 µM | [5] 31.6 µM | [6] 29 µM | [7] 23.1 µM | [8] 27 µM | [9] 43 µM | [10] 25.4 µM | [11] 32.6 µM | [12] 4.83 µM | [13] 24.5 µM | [14] 12 µM | [15] 48.6 µM | [16] 29 µM | [17] 27.5 µM | [18] 31.9 µM | [19] 37.8 µM | [20] 17.1 µM
